Reference: patent US20250161273A1, “PHARMACEUTICAL COMPOSITION COMPRISING DIPHENYLDIAZOLE DERIVATIVES AND METHODS OF USE” (MODAG GMBH, priority 2022, published 2025)

How the values were obtained:
[1] = rat formulation study, PK after single oral administration; assay type: in vivo; settings: Sprague-Dawley, plasma, male rats, 10 mg/kg single oral, read-out: Tmax, all four formulations
Method: A rat study was undertaken to assess the pharmacokinetics of anle138b in male Sprague Dawley rats (n=3/arm) following single oral administration of different formulations of anle138b, as follows, in Table 5.
Male Sprague Dawley (SD) rats (n=3/formulation) sourced from Charles River Italia were kept for 5 days acclimatization. Feeding regimen was ad libitum except on the day of dosing when the food was supplied 4 hours post dosing, having been removed the evening beforehand. Animals were orally dosed with anle138b (10 mg/kg) formulated as above. An individual serial plasma profile was drawn from each animal over a period of 24 hours after dosing.
The dose formulations were administered orally via gastric gavage (2 ml/kg); any remaining formulation after dosing was discarded.
After oral administration, blood samples were collected from the tail vein of each rat at the time-points detailed: Pre dose, 0.5, 1, 2, 4, 6, 8 and 24 hours after dosing […]
PK profiling was performed by non-compartmental analysis using Phoenix™ WinNonlin. […] The maximum observed peak plasma concentration (Cmax) and the time at which it was observed (Tmax) were determined by inspection of the observed data.
The relative bioavailability ([…]) of anle138b between dose formulations was calculated by comparing systemic exposure (AUC0-t), and are reported rounded to at least 2 significant figures. […]

[2] = phase 1 first-in-human trial, safety and tolerability; assay type: in vivo
Method: Anle138b was studied in a single-centre, double-blind, randomised, placebo-controlled single ascending dose (SAD) and multiple ascending dose (MAD) study in healthy subjects. Eligible participants were randomly assigned (1:1 for sentinel subjects and 1:5 for main group) to placebo or anle138b (dose ranging from 50 mg to 300 mg per day), respectively. In addition, the effect of food on the pharmacokinetics (PK) of anle138b in healthy subjects was examined at doses of 150 mg per day (FES, food effect study). Participants were randomized to treatment sequence (fed→fasted) or (fasted→fed). Treatment for the SAD, MAD and FES arms of the study was administered orally in hard gelatin capsules containing either 10 mg or 30 mg of anle138b with excipient (i.e., lauroyl polyoxyl-32 glycerides) or excipient only. The primary endpoints were safety and tolerability, the secondary endpoint was pharmacokinetics. Data from all randomized individuals were evaluated. [Clinicaltrials.gov-identifier: NCT04208152. EudraCT-number: 2019-004218-33] […]
In SAD, subjects received a single dose of anle138b or placebo after fasting from all food and drink (except water) for a minimum of 8 h prior to dosing. […] The following data were analyzed: Adverse events, vital signs, safety laboratory, ECG, physical examinations, plasma concentrations of anle138b with interim PK parameter estimations (Tmax, Cmax, AUC0-24, AUC0-tau, AUC0-last and T½, where applicable). […]
Outcome measures: The primary objective was to assess the safety and tolerability of single (SAD) and multiple (MAD) ascending doses of anle138b to healthy subjects in the fasted state and to assess the safety and tolerability of single doses of anle138b in both the fasted and fed state (FES). To this end, adverse events (AEs), clinical laboratory tests, vital signs, electrocardiograms (ECGs), QT interval corrected for heart rate using Fridericia's formula (QTcF), and physical examination findings were recorded. […]

[3] = animal studies, cited from earlier work
[4] = tested on: monomer; settings: cited from earlier work

Structure (SMILES): Brc1cccc(-c2cc(-c3ccc4c(c3)OCO4)n[nH]2)c1 [anle138b, 3-(1,3-benzodioxol-5-yl)-5-(3-bromophenyl)-1H-pyrazole]
- Tmax [1]: 2 to 8 h
- safety and tolerability (in words) ([2]; food effect study, 150 mg, fasted and fed conditions): safe and well tolerated
- serious adverse events (in words) ([2]; healthy subjects, any part of the study): no serious adverse events
- safety and tolerability (in words) ([2]; healthy subjects, up to 300 mg daily for up to 7 consecutive days): safe and well tolerated at all dose levels
- oral bioavailability (in words) [3]: high oral bioavailability
- levels in the brain relative to plasma ([3]; oral): 5 fold
- binding to the monomer (in words) [4]: does not bind to the monomer
